pIC50: −log10 of the molar value. Where two headings read alike, the source gives them in different places.
Assays:
[1] = Pharmacokinetic study in ICR (CD-1) mice; assay type: in vivo; details: male ICR (CD-1) mice, tail vein 1 mg/kg, oral 3 mg/kg groups, plasma; for half-life: mouse, read-out: Half-life t1/2 (converted)
Experimental: ICR (CD-1) male mice, 3 mice per group. One group of mice was injected with the compound to be tested via the tail vein at a dose of 1 mg/kg. The other group of mice was administered the compound to be tested via single-dose oral administration at a dose of 3 mg/kg. In the tail vein injection group, blood was collected from the saphenous vein at 5 minutes, 15 minutes, 30 minutes, 1 hour, 2 hours, 4 hours, 8 hours, and 24 hours post-administration. In the single-dose oral administration group, blood was collected at 15 minutes, 30 minutes, 1 hour, 2 hours, 4 hours, 8 hours, and 24 hours post-administration. The collected blood was placed in an EDTA-K2 anticoagulant tube, and 30 μL of whole blood was collected at each time point. Immediately after collection, blood samples were placed on wet ice for centrifugation. Samples would be centrifuged (maintained at 4600 rpm for 5 minutes at 4° C.) within 30 minutes to obtain plasma. The plasma sample was placed into a test tube (a target of 12 to 20 μL) for analysis. […] of plasma was added with 5 μL of MeOH, then added with 200 μL of MeOH/ACN solution containing 5 ng/mL of ISTD (Terfenadine), mixed well with shaking, and centrifuged at 4000 rpm for 15 minutes. The supernatant was diluted 5-fold with MeOH/water (1:1, v/v, 0.1% FA), and loaded to LC-MS/MS for quantification of plasma concentration by analytical methods and calculation of pharmacokinetic parameters.

PARP2 = PARP2 (Homo sapiens (Human), UniProt Q9UGN5); test: PARP2 enzymatic activity assay; assay type: biochemical; details: Biotin-NAD+ 2 μM, 60 minutes
PARP1 = PARP1 (Homo sapiens (Human), UniProt P09874); test: PARP1 enzymatic activity assay; assay type: biochemical; details: for pIC50: final PARP1 0.02 nM, DNA 0.8 nM, NAD+ 3.5 μM, 60 minutes; for PARP1/PARP2 inhibition Selectivity multiple N (N = IC50 (PARP2)/IC50 (PARP1)): ratio IC50 (PARP2)/IC50 (PARP1)
Experimental: 2) After the coating was completed, the coating buffer was discarded.
After washing, the blocking buffer was discarded.
4) 1000× compound was prepared. 1 μL of compound was transferred to a 96-well plate containing 199 μL of reaction buffer (50 mM Tris-HCl (pH 7.5), 0.005% Tween-20, 0.01% BSA) and mixed well.
5) 25/10×PARP1-DNA solution was prepared with reaction buffer.
6) 25/10×NAD+ solution was prepared with reaction buffer.
8) Primary antibody was 2000-fold diluted with the blocking buffer. 20 μL of primary antibody was added to the reaction plate, which was incubated at room temperature for 1.5 hours.
9) The primary antibody was discarded.
10) Secondary antibody was 2000-fold diluted with the blocking buffer.
11) The secondary antibody was discarded.
The chemiluminescence value RLU was read with Envision.

MDA-MB-436 cells = test: Proliferation activity assay of MDA-MB-436 cells (CellTiter-Glo); assay type: cell-based; details: 4000 cells seeded, 6 days incubation, read-out: MDA-MB-436 proliferation inhibition IC50
Experimental: Complete culture medium was prepared and mixed thoroughly. The cells were resuscitated and cultured for about two passages to select a cell line in good growth condition. The cell culture flask was removed from the incubator. Cell adherence: the culture medium was aspirated, then the cells were washed once with trypsin to discard the waste liquid, and 3 mL of fresh trypsin was added to the culture flask for digestion. When the cells were loose to be detached from the wall of the flask, 8 mL of complete culture medium was added thereto to stop trypsin digestion and mixed gently. The cell suspension was transferred to a centrifuge tube with a pipette and centrifuged at 1000 rpm for 5 minutes. The supernatant was discarded. An appropriate volume of culture medium was added to the centrifuge tube and pipetted gently to resuspend the cells evenly. The cells were counted using a Vi-Cell XR cell counter. The cell suspension was adjusted to an appropriate concentration. The cell suspension was added to a 96-well plate at 100 µL/well. The details such as cell name, seeding density, and date were labelled, and the culture plate was placed in a CO2 incubator overnight.
The compound to be tested was prepared into a 10 mM stock solution, which was aliquoted and stored in a −20° C. freezer. The compound solution was added to a 96-well plate using HPD300. The plate was incubated in a CO2 incubator for a total of 6 days.
CellTiter-Glo buffer was melted at room temperature. The lyophilized CellTiter-Glo substrate was equilibrated to room temperature. CellTiter-Glo buffer was added to the CellTiter Glo substrate and mixed thoroughly. A cell plate was taken out and equilibrated to room temperature. 100 μL of mixed CellTiter Glo reagent was added to each well, and the mixture was shaken in the dark for 10 minutes, followed by incubation for 20 minutes. The culture plate was placed into an Enspire reading plate, and the luminescence reading results were recorded. […] A pharmacodynamic inhibition rate curve was plotted by using XLFit, and the IC50 value was calculated. The 4-parameter model [fit=(A+((B−A)/(1+((C/x)^D)))] was used.

[2] = Homo sapiens, MDA-MB-436, 144 h

Sequence of PARP2 (Q9UGN5 whole entry): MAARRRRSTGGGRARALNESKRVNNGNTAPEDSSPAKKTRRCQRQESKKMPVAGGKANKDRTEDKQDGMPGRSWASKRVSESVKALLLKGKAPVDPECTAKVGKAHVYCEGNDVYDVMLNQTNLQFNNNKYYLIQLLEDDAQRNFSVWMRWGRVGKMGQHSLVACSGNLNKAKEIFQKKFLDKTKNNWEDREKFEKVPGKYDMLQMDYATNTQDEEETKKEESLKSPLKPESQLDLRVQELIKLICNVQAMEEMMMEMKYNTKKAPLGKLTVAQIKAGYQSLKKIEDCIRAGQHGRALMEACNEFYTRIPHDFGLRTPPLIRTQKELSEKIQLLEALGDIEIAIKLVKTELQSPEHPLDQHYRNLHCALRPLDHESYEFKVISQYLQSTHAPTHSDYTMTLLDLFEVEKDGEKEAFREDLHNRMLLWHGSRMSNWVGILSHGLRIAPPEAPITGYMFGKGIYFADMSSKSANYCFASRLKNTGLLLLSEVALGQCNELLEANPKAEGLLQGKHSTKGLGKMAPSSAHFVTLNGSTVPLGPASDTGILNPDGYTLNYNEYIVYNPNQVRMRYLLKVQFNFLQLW
Sequence of PARP1 (P09874 whole entry): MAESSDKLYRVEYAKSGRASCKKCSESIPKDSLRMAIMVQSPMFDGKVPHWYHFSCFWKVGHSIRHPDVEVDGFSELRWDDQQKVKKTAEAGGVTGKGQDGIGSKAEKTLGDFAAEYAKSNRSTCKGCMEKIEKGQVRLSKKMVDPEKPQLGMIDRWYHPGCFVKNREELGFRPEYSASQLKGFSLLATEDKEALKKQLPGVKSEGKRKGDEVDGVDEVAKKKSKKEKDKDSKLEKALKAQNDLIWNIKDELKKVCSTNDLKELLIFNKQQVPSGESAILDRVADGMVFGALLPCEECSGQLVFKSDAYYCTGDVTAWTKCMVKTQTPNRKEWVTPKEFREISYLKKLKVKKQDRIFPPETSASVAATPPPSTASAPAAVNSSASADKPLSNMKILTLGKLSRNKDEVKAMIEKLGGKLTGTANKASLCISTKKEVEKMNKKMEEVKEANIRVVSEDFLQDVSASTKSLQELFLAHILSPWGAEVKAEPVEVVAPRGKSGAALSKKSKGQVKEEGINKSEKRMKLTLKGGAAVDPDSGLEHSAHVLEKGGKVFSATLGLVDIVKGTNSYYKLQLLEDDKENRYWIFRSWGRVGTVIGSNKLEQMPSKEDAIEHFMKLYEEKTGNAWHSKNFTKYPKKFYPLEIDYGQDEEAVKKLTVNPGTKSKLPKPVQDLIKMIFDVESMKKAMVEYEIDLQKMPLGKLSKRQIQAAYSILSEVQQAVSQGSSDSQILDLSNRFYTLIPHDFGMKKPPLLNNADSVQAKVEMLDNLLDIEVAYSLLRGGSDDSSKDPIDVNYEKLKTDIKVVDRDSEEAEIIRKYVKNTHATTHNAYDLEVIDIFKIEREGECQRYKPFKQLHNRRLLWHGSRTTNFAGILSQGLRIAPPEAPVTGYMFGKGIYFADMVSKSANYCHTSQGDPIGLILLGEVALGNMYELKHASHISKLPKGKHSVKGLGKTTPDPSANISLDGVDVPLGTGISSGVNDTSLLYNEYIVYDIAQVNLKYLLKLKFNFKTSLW

| SMILES | Clearance [1] [mL/h/kg] | half-life [1] [h] | Half-life t1/2 [1] [h] | pIC50 (PARP2; final PARP2 […]) | pIC50 (PARP1) | PARP1/PARP2 inhibition Selectivity multiple N (N = IC50 (PARP2)/IC50 (PARP1)) (PARP1) | pIC50 (PARP2; final PARP2 1.5 nM) | pIC50 (MDA-MB-436 cells) | pIC50 (MDA-MB-436 cells; [2]) |
| --- | --- | --- | --- | --- | --- | --- | --- | --- | --- |
| CCc1cc2ncc(CN3CCN(c4ccc(C(=O)NC)nc4)CC3)cc2[nH]c1=O [AZD5305, reference compound] | 10.3 | 8.04 | – | – | – | – | – | – | – |
| CNC(=O)c1ccc(N2CCN(Cc3cnc4c5c(c(=O)[nH]c4c3)CCC5)[C@H]3CC[C@H]32)cn1 [Example 12-2, N-methyl-5-[(1R,6S)-5-((6-oxo-5H,7H,8H,9H-cyclopenta[c][1,5]naphthyridin-3-yl)methyl)-2,5-diazabicyclo[4.2.0]octan-2-yl]pyridine-2-carboxamide] | 1.92 | 41.3 | – | – | 9.30 | 120 | 7.22 | – | 8.70 |
| CNC(=O)c1ccc(N2CCN(Cc3cnc4cc(C(F)(F)F)c(=O)[nH]c4c3)[C@H]3CC[C@H]32)cn1 [Example 30-2, N-methyl-5-((1R,6S)-5-((6-oxo-7-(trifluoromethyl)-5,6-dihydro-1,5-naphthyridin-3-yl)methyl)-2,5-diazabicyclo[4.2.0]octan-2-yl)picolinamide] | 1.62 | 47.6 | – | – | 8.92 | 39 | 7.33 | – | 9.00 |

Continued by rising pIC50 (PARP1), values first:

| Clearance [1] [mL/h/kg] | half-life [1] [h] | Half-life t1/2 [1] [h] | pIC50 (PARP2; final PARP2 […]) | pIC50 (PARP1) | PARP1/PARP2 inhibition Selectivity multiple N (N = IC50 (PARP2)/IC50 (PARP1)) (PARP1) | pIC50 (PARP2; final PARP2 1.5 nM) | SMILES | pIC50 (MDA-MB-436 cells) | pIC50 (MDA-MB-436 cells; [2]) |
| --- | --- | --- | --- | --- | --- | --- | --- | --- | --- |
| 1.74 | – | 57.9 | 7.33 | 9.22 | 71 | – | CCc1cc2ncc(CN3CCN(c4ccc(C(=O)NC)nc4)[C@@H]4CC[C@@H]43)cc2[nH]c1=O [Example 2-2, 5-((1R,6S)-5-((7-ethyl-6-carbonyl-5,6-dihydro-1,5-naphthyridin-3-yl)methyl)-2,5-diazabicyclo[4.2.0]octan-2-yl)-N-methylpyridine-2-carboxamide] | 9.00 | – |
| – | – | – | – | 9.52 | 303 | 7.04 | CNC(=O)c1ccc(N2CCN(Cc3cnc4c5c(c(=O)[nH]c4c3)OCCC5)[C@@H]3CC[C@@H]32)cn1 [Example 31-1, N-methyl-5-((1S,6R)-5-((6-oxo-6,8,9,10-tetrahydro-5H-pyrano[2,3-c][1,5]naphthyridin-3-yl)methyl)-2,5-diazabicyclo[4.2.0]octan-2-yl)picolinamide] | – | 8.52 |

Source: patent US20250221987A1, “PIPERAZINO RING-CONTAINING DERIVATIVE, PHARMACEUTICALLY ACCEPTABLE SALT THEREOF, PREPARATION METHOD THEREFOR, AND APPLICATION THEREOF” (ACERAND THERAPEUTICS (HONG KONG) LIMITED, priority 2022, published 2025)
